Test system: cows (Holstein Friesians)
Assay: Dose-response DPD treatment and milk yield (Example 2)
Type: in vivo, cow
Settings: for Milk yield Last milking: before administration; for % reduction after 24 h / % reduction after 48 h / % reduction after 72 h / % reduction after 96 h: vs milk yield before treatment
From the text: Study design. Twenty-seven cows (Holstein Friesians) from 2 farms were used. […] The cows were milked twice a day. The cows were housed in free stables.
[…] For each dosage 3 cows were used.

- behavior of the cows (more than 100 ml DPD): looked like to become more active
SMILES: CCCSSCCC [DPD, di-n-propyl disulfide]
- Average reduction 24 and 48 h (%) (10 ml DPD): −3.3%
- Milk yield After 24 h (10 ml DPD): 14.45 kg
- Milk yield After 48 h (10 ml DPD): 13.98 kg
- Milk yield After 72 h (10 ml DPD): 12.99 kg
- Milk yield After 96 h (10 ml DPD): 13.78 kg
- Milk yield Last milking (10 ml DPD): 13.76 kg
- % reduction after 24 h (10 ml DPD): −5%
- % reduction after 48 h (10 ml DPD): −1.6%
- % reduction after 72 h (10 ml DPD): 5.6%
- % reduction after 96 h (10 ml DPD): 0%
- Average reduction 24 and 48 h (%) (20 ml DPD): 23%
- Milk yield After 24 h (20 ml DPD): 9.42 kg
- Milk yield After 48 h (20 ml DPD): 10.2 kg
- Milk yield After 72 h (20 ml DPD): 12.93 kg
- Milk yield After 96 h (20 ml DPD): 12.68 kg
- effect on milk yield compared to the milk yield before treatment (20 ml DPD): clear lowering on milk yield
- Milk yield Last milking (20 ml DPD): 12.72 kg
- % reduction after 24 h (20 ml DPD): 26%
- % reduction after 48 h (20 ml DPD): 20%
- % reduction after 72 h (20 ml DPD): −1.7%
- % reduction after 96 h (20 ml DPD): 0%
- Average reduction 24 and 48 h (%) (50 ml DPD): 33%
- Milk yield After 24 h (50 ml DPD): 10.03 kg
- Milk yield After 48 h (50 ml DPD): 8.38 kg
- Milk yield After 72 h (50 ml DPD): 14.16 kg
- Milk yield After 96 h (50 ml DPD): 13.68 kg
- Milk yield Last milking (50 ml DPD): 13.73 kg
- % reduction after 24 h (50 ml DPD): 27%
- % reduction after 48 h (50 ml DPD): 39%
- % reduction after 72 h (50 ml DPD): −3.1%
- % reduction after 96 h (50 ml DPD): 0%
- Average reduction 24 and 48 h (%) (80 ml DPD): 55%
- Milk yield After 24 h (80 ml DPD): 8.46 kg
- Milk yield After 48 h (80 ml DPD): 7.40 kg
- Milk yield After 72 h (80 ml DPD): 15.63 kg
- Milk yield After 96 h (80 ml DPD): 17.65 kg
- Milk yield Last milking (80 ml DPD): 17.63 kg
- % reduction after 24 h (80 ml DPD): 52%
- % reduction after 48 h (80 ml DPD): 58%
- % reduction after 72 h (80 ml DPD): 11.3%
- % reduction after 96 h (80 ml DPD): 0%
- behavior of the cows (80 ml or more DPD): became restless and showed a more active behavior
- Average reduction 24 and 48 h (%) (100 ml DPD): 51%
- Milk yield After 24 h (100 ml DPD): 8.12 kg
- Milk yield After 48 h (100 ml DPD): 8.44 kg
- Milk yield After 72 h (100 ml DPD): 13.33 kg
- Milk yield After 96 h (100 ml DPD): 16.55 kg
- Milk yield Last milking (100 ml DPD): 16.23 kg
- % reduction after 24 h (100 ml DPD): 50%
- % reduction after 48 h (100 ml DPD): 52%
- % reduction after 72 h (100 ml DPD): 17.9%
- % reduction after 96 h (100 ml DPD): −0.2%
- Average reduction 24 and 48 h (%) (150 ml DPD): 62%
- Milk yield After 24 h (150 ml DPD): 8.72 kg
- Milk yield After 48 h (150 ml DPD): 5.17 kg
- Milk yield After 72 h (150 ml DPD): 11.24 kg
- Milk yield After 96 h (150 ml DPD): 14.63 kg
- Milk yield Last milking (150 ml DPD): 14.78 kg
- % reduction after 24 h (150 ml DPD): 59%
- % reduction after 48 h (150 ml DPD): 65%
- % reduction after 72 h (150 ml DPD): 24%
- % reduction after 96 h (150 ml DPD): 0%
- Average reduction 24 and 48 h (%) (175 ml DPD): 55%
- Milk yield After 24 h (175 ml DPD): 8.44 kg
- Milk yield After 48 h (175 ml DPD): 8.75 kg
- Milk yield After 72 h (175 ml DPD): 13.24 kg
- Milk yield Last milking (175 ml DPD): 15.63 kg
- % reduction after 24 h (175 ml DPD): 54%
- % reduction after 48 h (175 ml DPD): 56%
- % reduction after 72 h (175 ml DPD): 15.3%
- Average reduction 24 and 48 h (%) (200 ml DPD): 52%
- Milk yield After 24 h (200 ml DPD): 11.29 kg
- Milk yield After 48 h (200 ml DPD): 10.87 kg
- Milk yield After 72 h (200 ml DPD): 13.56 kg
- Milk yield Last milking (200 ml DPD): 21.31 kg
- % reduction after 24 h (200 ml DPD): 53%
- % reduction after 48 h (200 ml DPD): 51%
- % reduction after 72 h (200 ml DPD): 36.4%
- behavior and eating behavior of the cows (after DPD administration): relaxed and quiet behavior and no change in eating behavior was observed
- adverse effects (dose of 200 grams administered to a cow): without demonstrating any adverse effects
- effect on milk yield (more than 80 ml DPD): no further decrease of milk yield was observed
- dosage at which the milk yield decrease became visible (single oral dose): ≥ 20 mL
- dosage giving maximum response (milk yield decrease) (single oral dose): ≥ 80 mL
- duration of the effect of DPD on milk yield (single oral dose): disappears on the 3rd and 4th day after treatment
- behavior of the cows (until 80 ml DPD): no undesired behavior of the cows was observed

Reference: patent US20260083687A1, “COMPOUNDS FOR REDUCING LACTATION AND IMPROVING HEALTH” (AHV International B.V., priority 2022, published 2026)
